One experiment deals with T1, USP28 (USP28-5(1-1077)-TEV-6*His; LifeSensors) (Homo sapiens, UniProt Q96RU2).
T1 construct: construct USP28 (USP28-5(1-1077)-TEV-6*His; LifeSensors); TEV cleavage site (C); 6xHis (C); purchased LifeSensors
T1 sequence (Q96RU2 1-1077): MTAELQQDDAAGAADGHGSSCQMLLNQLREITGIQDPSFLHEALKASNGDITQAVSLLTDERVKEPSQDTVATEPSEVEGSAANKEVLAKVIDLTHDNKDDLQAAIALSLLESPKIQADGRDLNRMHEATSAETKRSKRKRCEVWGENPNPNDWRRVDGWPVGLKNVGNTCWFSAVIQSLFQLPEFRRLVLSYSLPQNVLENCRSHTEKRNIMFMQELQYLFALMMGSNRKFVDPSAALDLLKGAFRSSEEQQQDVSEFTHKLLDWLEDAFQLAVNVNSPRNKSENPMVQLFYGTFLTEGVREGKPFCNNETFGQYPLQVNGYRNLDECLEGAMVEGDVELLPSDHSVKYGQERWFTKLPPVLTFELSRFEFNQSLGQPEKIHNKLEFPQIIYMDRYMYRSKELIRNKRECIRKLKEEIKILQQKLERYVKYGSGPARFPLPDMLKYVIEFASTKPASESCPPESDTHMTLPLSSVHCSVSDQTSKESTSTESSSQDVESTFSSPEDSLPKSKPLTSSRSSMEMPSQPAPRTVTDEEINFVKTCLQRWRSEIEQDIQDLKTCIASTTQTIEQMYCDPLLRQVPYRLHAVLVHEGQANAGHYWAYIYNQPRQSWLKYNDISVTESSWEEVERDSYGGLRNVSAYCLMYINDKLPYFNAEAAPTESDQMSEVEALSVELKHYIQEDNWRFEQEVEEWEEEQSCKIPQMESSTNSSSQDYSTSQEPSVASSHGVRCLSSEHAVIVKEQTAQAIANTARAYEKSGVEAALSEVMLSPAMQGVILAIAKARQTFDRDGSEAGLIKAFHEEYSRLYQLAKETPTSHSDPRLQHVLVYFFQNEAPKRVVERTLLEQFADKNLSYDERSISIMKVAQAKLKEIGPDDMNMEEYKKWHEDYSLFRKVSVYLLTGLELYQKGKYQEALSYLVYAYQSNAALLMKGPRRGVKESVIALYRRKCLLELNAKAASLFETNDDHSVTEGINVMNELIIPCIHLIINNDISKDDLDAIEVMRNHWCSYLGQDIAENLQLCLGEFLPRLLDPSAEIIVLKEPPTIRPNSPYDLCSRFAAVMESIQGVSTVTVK
Nature of the experiment: Ubiquitin-Rhodamine 110 Assay for USP28 Activity, Example A-1(b). It is filed as biochemical. The settings on record: Ub-Rh110 assay, Example A-1(b). As for the experimental part: Example A-1(b): Biochemical Assay: Ubiquitin-Rhodamine 110 Assay for USP28 Activity
Each assay was performed in a final volume of 20 μL in assay buffer containing 20 mM Tris-HCl (pH 8.0, (1M Tris-HCl, pH 8.0 solution; Corning 46-031-CM)), 2 mM CaCl2) (1M Calcium Chloride solution; Sigma #21114) 2 mM BME (2-Mercaptoethanol; Sigma 63689-25ML-F), 0.01% Prionex ([…] filtered, Sigma #G-0411), and 0.01% Triton X-100. Stock compound solutions were stored at −20° C. as 10 mM in DMSO. Up to 1 month prior to the assay, 2 mM test compounds were pre-dispensed into assay plates (Black, low volume; Corning #3820) and frozen at −20° C. Prestamped assay plates were allowed to come to room temperature on the day of the assay. For the screen, 100 nL of 2 mM was pre-dispensed for a final screening concentration of 10 μM (DMSO(fc)=0.5%). […] Plates were incubated stacked for 90 minutes at room temperature before fluorescence was read on the Envision (Excitation at 485 nm and Emission at 535 nm; Perkin Elmer) or on the PheraSTAR (Excitation at 485 nm and Emission at 535 nm; BMG Labtech).
For follow-up studies, each assay was performed in a final volume of 15 μL in assay buffer containing 20 mM Tris-HCl (pH 8.0, (1M Tris-HCl, pH 8.0 solution; Corning 46-031-CM)), 3 mM BME (2-Mercaptoethanol; Sigma 63689-25ML-F), 0.03% BGG (0.22 μM filtered, Sigma, G7516-25G), and 0.01% Triton X-100 (Sigma, T9284-10L). Nanoliter quantities of either an 8-point or 10-point, 3-fold serial dilution in DMSO was pre-dispensed into assay plates (Perkin Elmer, ProxiPlate-384 F Plus, #) for a final test concentration of either 25 μM to 11 nM or 25 μM to 1.3 nM, respectively. Enzyme USP28, construct USP28 (USP28-5(1-1077)-TEV-6*His; LifeSensors) concentration and incubation times were optimized for the maximal signal-to-background while maintaining initial velocity conditions at a fixed substrate concentration. The final concentration of the enzyme in the assay was 75 pM. Final substrate (Ub-Rh110; Ubiquitin-Rhodamine 110, R&D Systems #U-555) concentration was 25 nM with [Ub-Rh110]<<Km. 5 μL of 2× enzyme was added to assay plates (pre-stamped with compound) preincubated with USP28 for 30 minutes and then 5 μL of 2×Ub-Rh110 was added to assay plates. Plates were incubated stacked for 20 minutes at room temperature before 5 μL of stop solution was added (final concentration of 10 mM citric acid (Sigma, 251275-500G)). Fluorescence was read on the Envision (Excitation at 485 nm and Emission at 535 nm; Perkin Elmer) or on the PheraSTAR (Excitation at 485 nm and Emission at 535 nm; BMG Labtech).
For assay formats Example A-1(a), A-1(b), and A-2, data were reported as percent inhibition compared with control wells based on the following equation: % inh=1−((FLU−AveLow)/(AveHigh−AveLow)) where FLU=measured Fluorescence, AveLow=average Fluorescence of no enzyme control (n=16), and AveHigh=average Fluorescence of DMSO control (n=16). IC50 values were determined by curve fitting of the standard 4 parameter logistic fitting algorithm included in the Activity Base software package: IDBS XE Designer Model 205. Data is fitted using the Levenburg Marquardt algorithm.
`Cc1ccc2c(N)c(C(=O)N[C@@H]3COc4cc(N5CCN[C@@H](C)[C@H]5C)ccc4C3)sc2n1` (single isomer, unassigned) [Example 1-8]: the “USP28 A-1(b) IC50 range” value is recorded as “++++ (0.001-0.05 μM)”.

With `Cc1ccc2c(N)c(C(=O)N[C@H]3COc4cc(N5CC6CCC(C5)N6)cc(F)c4C3)sc2n1` (single isomer, unassigned) [Example 1-29], the “USP28 A-1(b) IC50 range” value is on record as “+++ (0.05-0.2 μM)”.

Staying with this experiment, now noted: Ubiquitin-Rhodamine 110 assay, Example A-1(b).
Turning to `Cc1cnc2c(N)c(C(=O)N[C@H]3CCc4cc(N5C[C@@H]6C[C@H]5CN6)ccc4C3)sc2n1` (single isomer, unassigned) [Example 11-29], the “USP28 A-1(b) IC50 range” value is “++ (0.2-2 μM)”.

On to `Cc1ccc2c(N)c(C(=O)N[C@H]3COc4cc(N5CCNCC5)ccc4[C@H]3C)sc2n1` (single isomer, unassigned) [Example 11-15], for which the “USP28 A-1(b) IC50 range” value is reported as “+ (>2 μM)”.

As for `Cc1ccc2c(N)c(C(=O)N[C@H]3COc4cc(N5CCNCC5)ccc4[C@@H]3C)sc2n1` (single isomer, unassigned) [Example 11-16], the “USP28 A-1(b) IC50 range” value is listed as “+ (>2 μM)”.

`Cc1ccc2c(N)c(C(=O)N[C@H]3COc4cc(N5CCNC6(COC6)C5)ccc4C3)sc2n1` [Example 4-1, (R)—N-(7-(2-oxa-5,8-diazaspiro[3.5]nonan-8-yl)chroman-3-yl)-3-amino-6-methylthieno[2,3-b]pyridine-2-carboxamide]: the “USP28 A-1(b) IC50 range” value was “++ (0.2-2 μM)”.

`CN[C@H]1CCN(c2ccc3c(c2)CC[C@H](NC(=O)c2sc4nc(C)cnc4c2N)C3)C1` (single isomer, unassigned) [Example 11-25]: the “USP28 A-1(b) IC50 range” value is “++ (0.2-2 μM)”.

Regarding `CN[C@H]1CCN(c2ccc3c(c2)CC[C@@H](NC(=O)c2sc4nc(C)cnc4c2N)C3)C1` (single isomer, unassigned) [Example 11-26], the “USP28 A-1(b) IC50 range” value was “+ (>2 μM)”.

As for `Cc1cnc2c(N)c(C(=O)N[C@@H]3CCc4cc(N5CCNCC5)ccc4C3)sc2n1` (single isomer, unassigned) [Example 11-20], the “USP28 A-1(b) IC50 range” value is given as “+ (>2 μM)”.

`Cc1ccc2c(N)c(C(=O)N[C@@H]3COc4cc(N5C[C@@H]6CNC[C@H]6C5)ccc4C3)sc2n1` [Example 42, 3-amino-((S)-7-((3aS,6aS)-hexahydropyrrolo[3,4-c]pyrrol-2(1H)-yl)chroman-3-yl)-6-methylthieno[2,3-b]pyridine-2-carboxamide]: the “USP28 A-1(b) IC50 range” value is given as “++ (0.2-2 μM)”.

For `Cc1cnc2c(N)c(C(=O)N[C@H]3CCc4cc(N5CCNCC(F)(F)C5)ccc4C3)sc2n1` [Example 454, (S)-7-amino-N-(6-(6,6-difluoro-1,4-diazepan-1-yl)-1,2,3,4-tetrahydronaphthalen-2-yl)-3-methylthieno[2,3-b]pyrazine-6-carboxamide], the “USP28 A-1(b) IC50 range” value is reported as “+++ (0.05-0.2 μM)”.

For `Cc1cnc2c(N)c(C(=O)N[C@H]3CCc4cc(N5CCNCC5)ccc4C3)sc2n1` (single isomer, unassigned) [Example 11-19], the “USP28 A-1(b) IC50 range” value is recorded as “++ (0.2-2 μM)”.

Take `Cc1ccc2c(N)c(C(=O)N[C@H]3CCc4cc(N5CC6CNCC(C5)O6)ccc4C3)sc2n1` (single isomer, unassigned) [Example 449]: the “USP28 A-1(b) IC50 range” value is “++ (0.2-2 μM)”.

Regarding `CN[C@@H]1CCN(c2ccc3c(c2)CC[C@@H](NC(=O)c2sc4nc(C)cnc4c2N)C3)C1` (single isomer, unassigned) [Example 11-28], the “USP28 A-1(b) IC50 range” value was “+ (>2 μM)”.

Still in this experiment, the particulars now being: Ubiquitin-Rhodamine 110 assay, format Example A-1(b).
On to `Cc1ccc2c(N)c(C(=O)N[C@@H]3CCc4c(C#N)c(N5CCNCC5)cc(F)c4C3)sc2n1` [Example 14-9, (R)-3-amino-N-(5-cyano-8-fluoro-6-(piperazin-1-yl)-1,2,3,4-tetrahydronaphthalen-2-yl)-6-methylthieno[2,3-b]pyridine-2-carboxamide], for which the “USP28 A-1(b) IC50 range” value is “+ (>2 μM)”.

For `Cc1ccc2c(N)c(C(=O)N[C@@H]3CCc4cc(N5CC6CNCC(C5)O6)cc(F)c4C3)sc2n1` (single isomer, unassigned) [Example 11-40], the “USP28 A-1(b) IC50 range” value is “++++ (0.001-0.05 μM)”.

On to `Cc1cnc2c(N)c(C(=O)N[C@@H]3CCc4cc(N5C[C@@H]6C[C@H]5CN6)ccc4C3)sc2n1` (single isomer, unassigned) [Example 11-30], for which the “USP28 A-1(b) IC50 range” value was “++ (0.2-2 μM)”.

As to `Cc1cnc2c(N)c(C(=O)N[C@@H]3CCc4cc(N5C[C@H]6C[C@@H]5CN6)ccc4C3)sc2n1` (single isomer, unassigned) [Example 11-32], the “USP28 A-1(b) IC50 range” value is reported as “++ (0.2-2 μM)”.

For the molecule `Cc1cnc2c(N)c(C(=O)N[C@@H]3CCc4cc(N5CCNCC5)cc(F)c4C3)sc2n1` (single isomer, unassigned) [Example 11-37], the “USP28 A-1(b) IC50 range” value is given as “+ (>2 μM)”.

`Cc1cnc2c(N)c(C(=O)N[C@H]3CCc4cc(N5C[C@H]6C[C@@H]5CN6)ccc4C3)sc2n1` (single isomer, unassigned) [Example 11-31]: the “USP28 A-1(b) IC50 range” value was “++ (0.2-2 μM)”.

Turning to `Cc1ccc2c(N)c(C(=O)N[C@H]3CCc4c(C#N)c(N5CCNCC5)cc(F)c4C3)sc2n1` [Example 14-10, (S)-3-amino-N-(5-cyano-8-fluoro-6-(piperazin-1-yl)-1,2,3,4-tetrahydronaphthalen-2-yl)-6-methylthieno[2,3-b]pyridine-2-carboxamide], the “USP28 A-1(b) IC50 range” value is reported as “+++ (0.05-0.2 μM)”.

Consider `Cc1cnc2c(N)c(C(=O)N[C@@H]3CCc4c(C#N)c(N5CCNCC5)cc(F)c4C3)sc2n1` [Example 14-11, (R)-7-amino-N-(5-cyano-8-fluoro-6-(piperazin-1-yl)-1,2,3,4-tetrahydronaphthalen-2-yl)-3-methylthieno[2,3-b]pyrazine-6-carboxamide], for which the “USP28 A-1(b) IC50 range” value is “++ (0.2-2 μM)”.

With `Cc1cnc2c(N)c(C(=O)N[C@H]3CCc4cc(N5CCNCC5)cc(F)c4C3)sc2n1` (single isomer, unassigned) [Example 11-38], the “USP28 A-1(b) IC50 range” value is recorded as “+++ (0.05-0.2 μM)”.
